{
  "source": "patent US11825844B2",
  "about": "“Method for controlling Fusarium oxysporum f. sp. cubense tropical race 4” (GUANGXI UNIVERSITY, priority 2021, dated 2023)",
  "key": {"[1]": {"system": "Brazilian banana seedlings", "assay": "Effect on the growth of Brazilian banana seedlings in treated Gauze's Medium #1", "assay_type": "in vivo", "conditions": "3 mM in Gauze's Medium #1; 6 Brazilian banana seedlings per treatment", "protocol": "XcA was dissolved in ethanol. In order to investigate the effect of XcA on the growth of Brazilian banana, 3 mM XcA was added to Gauze's Medium #1. A volume of ethanol (CK) equal to the compound concentration was added to the control. A negative control was set up, and 200 μM 8-hydroxyquinoline (8HQ) was added to the Gauze's Medium #1. Then Brazilian banana seedlings were planted in a culture plate containing the above-mentioned treated medium. Each treatment had 6 replicates (6 Brazilian banana seedlings). The culture plate containing Brazilian banana seedlings was placed in a growth chamber to grow for 10 days to observe the effect on plant growth. Each treatment continued to grow for two months, during which an equal volume of sterile water was supplemented, and the plant height, root weight and seedling weight of each treatment were determined."}, "spores of Foc TR4": {"system": "spores of Foc TR4", "assay": "Effect on spore morphology of Foc TR4 in Gauze's Medium #1, observed under a scanning electron microscope", "assay_type": "cell-based, Fusarium oxysporum f. sp. cubense tropical race 4", "protocol": "XcA (the compound xerucitrinin A) at a final concentration of 3 mM was added to Gauze's Medium #1, and the filtered spore suspension of Foc was added, with a final spore concentration of 1×10^7 spores/mL. The control treatment was implemented by treating with the same volume of sterile water. The spore suspension was cultured at 28° C. in the dark for 24 h. The spores of Foc were collected and fixed in a 2.5% (v/v) glutaraldehyde solution at 4° C. overnight. The fixed spores were rinsed twice with 0.1 mol/L PBS (pH 7.4), dehydrated gradiently with 30%, 50%, 70%, 80%, 90%, 95%, and 100% ethanol solutions for 20 min, dried and subjected to gold spraying. The spore morphology of Foc TR4 was observed under a scanning electron microscope."}, "[2]": {"assay": "Chrome azurol S (CAS) agar plate siderophore zone test for Fe-binding", "conditions": "200 μL of 0.2 mM compound solution in Oxford cup, let stand for 3 h", "protocol": "Chrome azurol S (CAS) agar plate, namely the siderophore screening medium consisting of 1 mL of 20% glucose solution, 3 mL of 10% casein, 100 μL of 1 mmoL/L CaCl2), 2 mL of 1 mmoL/L MgSO4, 100 mL of H2O, and 1.8 g of agar, was heated, and supplemented with 5 mL each of CAS dye solution and phosphate buffered saline (PBS) at 60° C. slowly to obtain a CAS-blue agar medium.\nCAS dye solution included: 1 mmol/L CAS, 4 mmol/L hexadecyl trimethyl ammonium bromide, and 0.1 mmol/L FeCl3.\nPBS (pH 6.8) included: 2.427 g of Na2HPO4.12H2O, 0.5905 g of NaH2PO4.2H2O, 0.075 g of KH2PO4, 0.250 g of NH4Cl, 0.125 g of NaCl, and 100 mL of H2O. All the above solutions were prepared with deionized water. […]\nThe Fe-binding ability of xerucitrinin A was detected by using the CAS agar plate. […] The growth of Foc TR4 is inhibited by binding Fe."}},
  "data": [
    {"smiles": "Cc1c(O)c(C)c2c(c1O)CO[C@]1(C[C@H]3O[C@H](C)[C@@H](C)c4c(C)c(O)c(O)c(c43)O1)[C@H]2C", "note": "[xerucitrinin A]", "values": [
      {"measurement": "effect on the growth of banana seedlings compared with the control", "setting": "[1]", "result": "no adverse effect on the growth of banana seedlings"},
      {"measurement": "spore morphology of Foc", "setting": "spores of Foc TR4", "result": "obvious crenation on the surface of the spores"},
      {"measurement": "germination and growth of the spores of Foc", "setting": "spores of Foc TR4; 3 mM in Gauze's Medium #1, 28° C. in the dark for 24 h", "result": "affect the germination and growth of the spores of Foc"},
      {"measurement": "Fe-binding ability (siderophore zone around the Oxford cup)", "setting": "[2]", "result": "a siderophore zone appeared around the Oxford cup"}
    ]}
  ]
}
